Data taken from patent US20070122830A1, “Prohibitin-directed diagnostics and therapeutics for cancer and chemotherapeutic drug resistance” (Aurelium BioPharma Inc., priority 2005, published 2007).
Like-named read-outs stand apart in the source and are kept apart here.

What was measured:
Assay type in all cases: cell-based, human
[1] = tested on: SKOV3 Ovarian Cancer Cell Line; test: MTT cytotoxicity assay, transfected SKOV3 cells plus chemotherapeutic drug; conditions: for EC50 / fold change of EC50, Prohibitin vs Control: SKOV3 cells; for fold change of EC50, Prohibitin vs Control: direction IS/IR in same cell (E54); for IC50: Homo sapiens, SK-OV-3, SKOV3 cells
Experimental: (§1) For a typical siRNA transfection, 1 nmole of the annealed siRNA duplex was mixed with 1.4 ml of Opti-MEM reagent (Invitrogen). In another tube, […] of Oligofectamine reagent (Invitrogen, Carlsbad, Calif.) was mixed with […] of Opti-MEM. The two solutions were combined and mixed gently by inversion and incubated for 20 min. at RT. The resulting solution was added to the cultured cells drop by drop in a 10 cm dish (cells are approximately 40-50% confluent). The next day the transfected cells were trypsinized and seeded in 6 or 96-well plates and further incubated for the indicated amount of time (assay dependent) before further analysis.
(§2) RNA-transfected cells were seeded in triplicate into 96-well plates at 5×10^3 cells/well 48 hrs post-transfection. The cells were incubated for an additional 16 to 24 hrs before they were exposed to increasing concentrations of cytotoxic drugs. […] Appropriate dilutions were made in the respective media for each cell line. Following addition of drugs, incubation was continued for an additional 72 hrs. […] of MTT dye (5 mg/ml) were added into each well and the plate was further incubated at 37° C. for 4 hrs. The dye was solubilized with 10% Triton X-100, 0.01 N HCl and further incubated at 37° C. in the dark for 30 min. Cell viability was determined by measure of absorption at 570 nm in a Wallac multiwell plate reader (PerkinElmer, Inc., Boston, Mass.). The averages of triplicate wells were plotted using the Prism software (GraphPad Software, Inc., San Diego, Calif.).
Each table summarizes the results of an individual experiment performed in triplicate.

[2] = tested on: MDA Breast Cancer Cell Line; test: MTT cytotoxicity assay, transfected MDA cells plus chemotherapeutic drug; conditions: for EC50 / fold change of EC50, Prohibitin vs Control / IC50: MDA cells; for sensitivity to drug of prohibitin siRNA treated cells compared to mock-treated cells / sensitivity to drug of prohibitin siRNA treated cells compared to controls / sensitivity to drug of prohibitin siRNA treated cells compared to mock controls: MDA; for sensitivity to drug of prohibitin siRNA treated cells compared to mock-treated cells: FIG. 9A-9H; for IC50: Homo sapiens
Experimental: as §1, §2

[3] = tested on: MCF-7 Breast Cancer Cell Line; test: MTT cytotoxicity assay, transfected MCF-7 cells plus chemotherapeutic drug; conditions: for fold change of EC50, Prohibitin vs Control: direction IS/IR in same cell (E42); for sensitivity to drug of prohibitin siRNA treated cells: MCF-7, FIGS. 15A-15H
Experimental: as §1
as §2, with “Cell survival was determined using the MTT cytotoxicity assay (see, e.g., Tokuyama et al. (2005) Anticancer Res. 25(1A): 17-22). RNA-transfected” for “RNA-transfected”, “drugs. Doxorubicin (adriamycin), cisplatinum, taxol, vinblastin, vincristin, and mitoxantrone were all purchased from Sigma Corp. (St. Louis, Mo.).” for “drugs.”
Cell survival was determined as described in Example 3 above.

[4] = mock-transfected control, Table 10 experiment, read-out: EC50, Control
[5] = mock-transfected control, Table 11 experiment, read-out: EC50, Control
[6] = prohibitin (siRNA) transfected, Table 10 experiment, read-out: EC50, Prohibitin
[7] = prohibitin (siRNA) transfected, Table 11 experiment, read-out: EC50, Prohibitin
[8] = mock-transfected control, Table 3 experiment, read-out: EC50, Control
[9] = mock-transfected control, Table 4 experiment, read-out: EC50, Control
[10] = mock-transfected control, Table 5 experiment, read-out: EC50, Control
[11] = mock-transfected control, Table 6 experiment, read-out: EC50, Control
[12] = mock-transfected control, Table 7 experiment, read-out: EC50, Control
[13] = mock-transfected control, Table 8 experiment, read-out: EC50, Control
[14] = prohibitin (siRNA) transfected, Table 3 experiment, read-out: EC50, Prohibitin
[15] = prohibitin (siRNA) transfected, Table 4 experiment, read-out: EC50, Prohibitin
[16] = prohibitin (siRNA) transfected, Table 5 experiment, read-out: EC50, Prohibitin
[17] = prohibitin (siRNA) transfected, Table 6 experiment, read-out: EC50, Prohibitin
[18] = prohibitin (siRNA) transfected, Table 7 experiment, read-out: EC50, Prohibitin
[19] = prohibitin (siRNA) transfected, Table 8 experiment, read-out: EC50, Prohibitin
[20] = Table 3 experiment, direction IS/IR in same cell (E6)
[21] = Table 4 experiment, direction IS/IR in same cell (E12)
[22] = Table 6 experiment, direction IS/IR in same cell (E24)
[23] = Table 7 experiment, direction IS/IR in same cell (E30)
[24] = Table 8 experiment, direction IS/IR in same cell (E36)
[25] = MCF-7 cells, prohibitin (siRNA) transfected, Table 9, read-out: EC50, Prohibitin
[26] = Homo sapiens, MCF7, MCF-7 cells, prohibitin (siRNA) transfected, Table 9, read-out: EC50, Prohibitin

Row | Structure (SMILES) | EC50 [1, 6] | EC50 [1, 7] | fold change of EC50, Prohibitin vs Control ([1]; Table 11 experiment) | EC50 [2, 14] | EC50 [2, 15] | EC50 [2, 16] | EC50 [2, 19] | fold change of EC50, Prohibitin vs Control [2, 20] | fold change of EC50, Prohibitin vs Control [2, 21] | sensitivity to drug of prohibitin siRNA treated cells compared to mock-treated cells [2] | sensitivity to drug of prohibitin siRNA treated cells compared to controls ([2]; FIGS. 10A-10H) | sensitivity to drug of prohibitin siRNA treated cells compared to mock controls ([2]; FIGS. 13A-13H) | fold change of EC50, Prohibitin vs Control ([3]; MCF-7 cells, Table 9) | sensitivity to drug of prohibitin siRNA treated cells [3] | IC50 [1, 4] | IC50 [1, 5] | IC50 [2, 8] | IC50 [2, 9] | IC50 [2, 12] | IC50 [2, 13] | also measured
1 | N.N.[Cl][Pt][Cl] [Cisplatinum] | 26.3 µM | 68.8 µM | 1.4 x | 189 µM | 271 µM | 124 µM | 57 µM | 1.2 x | 1.4 x | increased sensitivity | more sensitive | increased sensitivity | 1.3 x |  |  |  |  |  |  |  | EC50 [1, 4]: 22.4 µM; EC50 [1, 5]: 50 µM; EC50 [2, 8]: 255 µM; EC50 [2, 9]: 374 µM; EC50 [2, 10]: 94.3 µM; EC50 [2, 11]: 164 µM; EC50 [2, 12]: 76.8 µM; EC50 [2, 13]: 29.3 µM; EC50 [2, 17]: 189 µM; EC50 [2, 18]: 54.5 µM; fold change of EC50, Prohibitin vs Control ([2]; Table 5 experiment, direction IS/IR in same cell (E18)): 1.3 x; fold change of EC50, Prohibitin vs Control [2, 22]: 1.1 x; fold change of EC50, Prohibitin vs Control [2, 23]: 1.4 x; fold change of EC50, Prohibitin vs Control [2, 24]: 1.9 x; EC50 ([3]; MCF-7 cells, mock-transfected control, Table 9, read-out: EC50, Control): 118 µM; EC50 [3, 25]: 151 µM; change in sensitivity to the drug, Prohibitin vs Control ([3]; MCF-7 cells, Table 9): IR (IR: “increased in resistance” to the drug)
2 | CC(=O)O[C@@]12CO[C@@H]1C[C@H](O)[C@@]1(C)C(=O)[C@H](O)C3=C(C)[C@@H](OC(=O)[C@H](O)[C@@H](NC(=O)OC(C)(C)C)c4ccccc4)C[C@@](O)([C@@H](OC(=O)c4ccccc4)[C@H]21)C3(C)C [Docetaxel] |  |  |  |  |  |  |  |  |  |  |  |  | 13.8 x | more sensitive |  |  |  |  |  |  | EC50 [3, 25]: 0.00534 µM
3 | COc1cccc2c1C(=O)c1c(O)c3c(c(O)c1C2=O)C[C@@](O)(C(=O)CO)C[C@@H]3O[C@H]1C[C@H](N)[C@H](O)[C@H](C)O1 [Doxorubicin] | 0.0128 µM | 1.23e-05 µM |  | 0.00173 µM | 0.00125 µM | 0.000993 µM | 0.000139 µM |  |  |  |  | increased sensitivity |  | more sensitive | 0.0213 µM | 2.65e-05 µM | 0.00146 µM | 0.000873 µM | 0.000232 µM | 0.000177 µM | IC50 [2, 10]: 0.00175 µM; IC50 [2, 11]: 0.00225 µM; EC50 [2, 17]: 0.00172 µM; sensitivity to drug of prohibitin siRNA treated cells compared to controls ([2]; FIG. 11A): increased sensitivity; sensitivity to drug of prohibitin siRNA treated cells compared to mock controls ([2]; FIGS. 14A-14H): more sensitive; EC50 [3, 25]: 0.03 µM
4 | COc1cc([C@@H]2c3cc4c(cc3[C@@H](O[C@@H]3O[C@@H]5CO[C@@H](C)O[C@H]5[C@H](O)[C@H]3O)[C@H]3COC(=O)[C@H]23)OCO4)cc(OC)c1O [Etoposide] | 0.611 µM | 0.241 µM |  |  |  |  |  |  | 1.3 x |  | more sensitive |  | 2.2 x | more sensitive | 0.621 µM | 0.148 µM | 78.9 µM | 83.9 µM | 9.56 µM | 9.31 µM | IC50 [2, 14]: 76.5 µM; IC50 [2, 15]: 63 µM; IC50 [2, 18]: 10 µM; IC50 [2, 19]: 9.64 µM; EC50 [3, 26]: 7.28 µM
5 | N[C@@H](Cc1ccc(N(CCCl)CCCl)cc1)C(=O)O [Melphalan] | 4.54 µM | 4.57 µM | 1.3 x | 39.1 µM | 41 µM |  | 19.1 µM | 1.5 x | 1.1 x | increased sensitivity |  |  | 1.4 x | more sensitive | 5.79 µM | 5.95 µM | 60.1 µM | 36.1 µM | 24.9 µM | 35.4 µM | EC50 [2, 18]: 23.9 µM; fold change of EC50, Prohibitin vs Control [2, 24]: 1.8 x; sensitivity to drug of prohibitin siRNA treated cells compared to mock controls ([2]; FIGS. 14A-14H): more sensitive; EC50 ([3]; Homo sapiens, MCF7, MCF-7 cells, mock-transfected control, Table 9, read-out: EC50, Control): 14.7 µM; EC50 [3, 26]: 10.5 µM
6 | S=P(N1CC1)(N1CC1)N1CC1 [Thiotepa] | 24.9 µM | 13.9 µM | 1.2 x |  |  |  |  | 1.3 x | 1.7 x | increased sensitivity | more sensitive | increased the sensitivity |  |  | 35 µM | 16.5 µM | 600 µM | 510 µM | 146 µM | 159 µM | IC50 [2, 11]: 628 µM; IC50 [2, 14]: 475 µM; IC50 [2, 15]: 291 µM; IC50 [2, 17]: 527 µM; IC50 [2, 18]: 97.1 µM; IC50 [2, 19]: 164 µM; fold change of EC50, Prohibitin vs Control [2, 22]: 1.2 x; fold change of EC50, Prohibitin vs Control [2, 23]: 1.5 x; sensitivity to drug of prohibitin siRNA treated cells compared to mock controls ([2]; FIGS. 12A-12D): increased sensitivity
7 | CC[C@]1(O)C[C@@H]2CN(CCc3c([nH]c4ccccc34)[C@@](C(=O)OC)(c3cc4c(cc3OC)N(C)[C@H]3[C@@](O)(C(=O)OC)[C@H](OC(C)=O)[C@]5(CC)C=CCN6CC[C@]43[C@@H]65)C2)C1 [Vinblastin] |  |  |  |  |  | 2.55 µM |  |  |  |  |  |  |  |  |  |  |  |  |  |  | EC50 [2, 10]: 0.157 µM
